Experimental data published in patent US8092805B2, “Dual inhibitors of HIV-1 gp-120 interactions” (priority 2004, dated 2012).

Assays:
[1] = system: gp120 interaction with CD4; conditions: Biorn et al. 2004; cited from earlier work
[2] = biological target: T1, YU2 gp120 (Human immunodeficiency virus type 1 group M subtype B, UniProt P35961); assay type: binding, HIV-1; conditions: SPR
T1 construct: immobilized YU2 gp120
Method: Req. was calculated from 280 to 295 seconds in each concentration sensorgram and plotted against the concentration of the peptide.
Increasing concentrations of peptide were passed over an immobilized high density (5000 RU) surface. […] Buffer injections and controls were subtracted for all reported data. The equilibrium constant KD was calculated from the fit of direct binding to a steady state 1:1 binding model as a function of Req.

Molecule	inhibition of interaction of gp120 to CD4 (in words) [1]	direct interaction with YU2 gp120 (in words) [2]
CC[C@H](C)[C@H](NC(=O)[C@@H](N)CCCNC(=N)N)C(=O)N[C@@H](CC(N)=O)C(=O)N[C@@H](CC(N)=O)C(=O)N[C@H](C(=O)N1CCC[C@H]1C(=O)N[C@@H](Cc1c[nH]c2ccccc12)C(=O)N[C@@H](CO)C(=O)N[C@@H](CCC(=O)O)C(=O)N[C@@H](C)C(=O)N[C@@H](CCSC)C(=O)N[C@@H](CCSC)C(=O)O)[C@@H](C)CC [Peptide 1]	micromolar affinity	
RINNIAmpWSEAMM [Peptide 4]		no effect on gp120
